Results reported in US20090197880A1 (Genelabs Technologies, Inc., priority 2007, published 2009).

Assay: HCV replicon assay (luciferase) in ET (Huh-lucubineo-ET) cell line
Format: cell-based
Settings: Hepatitis C virus; tested at 10 μM; inhibition of replication relative to no compound control; ET replicon cells, luciferase 48-72 hours; read-out: % inhition at 10 μM

First: Fc1ccc(F)c(-c2nc3cnn(Cc4cc(-c5ccc(C(F)(F)F)cc5C(F)(F)F)no4)cc-3n2)c1 [Compound 299, 5-[3-(2,4-Bis-trifluoromethyl-phenyl)-isoxazol-5-ylmethyl]-2-(2,5-difluoro-phenyl)-5H-imidazo[4,5-d]pyridazine]
Second: Cc1ccc(-c2cc(Cn3cc4nc(-c5cccc(F)c5F)nc-4cn3)on2)c(C(F)(F)F)c1 [Compound 304, 2-(2,3-Difluoro-phenyl)-5-[3-(4-methyl-2-trifluoromethyl-phenyl)-isoxazol-5-ylmethyl]-5H-imidazo[4,5-d]pyridazine]
The inhibition at 10 µM of the first is lower: 79.3% for the first, 99.7% for the second.

Compared with `CCCCc1ccc(-c2cc(Cn3cc4nc(-c5cccc(F)c5F)nc-4cn3)on2)cn1` [Compound 301, 5-[3-(6-Butyl-pyridin-3-yl)-isoxazol-5-ylmethyl]-2-(2,3-difluoro-phenyl)-5H-imidazo[4,5-d]pyridazine], `CCCCc1ccc(-c2cc(Cn3cc4nc(-c5cccc(F)c5F)nc-4cn3)on2)c(F)c1` [Compound 303, 5-[3-(4-Butyl-2-fluoro-phenyl)-isoxazol-5-ylmethyl]-2-(2,3-difluoro-phenyl)-5H-imidazo[4,5-d]pyridazine] is higher in inhibition at 10 µM: 97.3% for the first, 99.8% for the second.

Going from `CC(C)c1ccc(-c2cc(Cn3cc4nc(-c5cccc(F)c5F)nc-4cn3)on2)cc1` [Compound 305, 2-(2,3-Difluoro-phenyl)-5-[3-(4-isopropyl-phenyl)-isoxazol-5-ylmethyl]-5H-imidazo[4,5-d]pyridazine] to `Fc1cccc(-c2nc3cnn(Cc4cc(-c5ccc(C(F)F)cc5)no4)cc-3n2)c1F` [Compound 336, 5-[3-(4-Difluoromethyl-phenyl)-isoxazol-5-ylmethyl]-2-(2,3-difluoro-phenyl)-5H-imidazo[4,5-d]pyridazine], the inhibition at 10 µM rises from 99.4% to 99.7%.

Compared with `Fc1cccc(-c2nc3cnn(Cc4cc(-c5ccc(I)cc5)no4)cc-3n2)c1F` [Compound 306, 2-(2,3-Difluoro-phenyl)-5-[3-(4-iodo-phenyl)-isoxazol-5-ylmethyl]-5H-imidazo[4,5-d]pyridazine], `C#Cc1ccc(-c2cc(Cn3cc4nc(-c5cccc(F)c5F)nc-4cn3)on2)cc1` [Compound 334, 2-(2,3-Difluoro-phenyl)-5-[3-(4-ethynyl-phenyl)-isoxazol-5-ylmethyl]-5H-imidazo[4,5-d]pyridazine] is lower in inhibition at 10 µM: 99.9% for the first, 99% for the second.

Compared with `Cc1ccc(-c2cc(Cn3cc4nc(-c5cccc(F)c5F)nc-4cn3)on2)c(C)c1` [Compound 309, 2-(2,3-Difluoro-phenyl)-5-[3-(2,4-dimethyl-phenyl)-isoxazol-5-ylmethyl]-5H-imidazo[4,5-d]pyridazine], `COc1ccc(-c2cc(Cn3cc4nc(-c5cccc(F)c5F)nc-4cn3)on2)c(F)c1` [Compound 313, 2-(2,3-Difluoro-phenyl)-5-[3-(2-fluoro-4-methoxy-phenyl)-isoxazol-5-ylmethyl]-5H-imidazo[4,5-d]pyridazine] is lower in inhibition at 10 µM: 100% for the first, 99.2% for the second.

First: Cc1cc(C#Cc2ccc(-c3cc(Cn4cc5nc(-c6cccc(F)c6F)nc-5cn4)on3)cc2)cc(C)n1 [Compound 310, 2-(2,3-Difluoro-phenyl)-5-{3-[4-(2,6-dimethyl-pyridin-4-ylethynyl)-phenyl]-isoxazol-5-ylmethyl}-5H-imidazo[4,5-d]pyridazine]
Second: Cc1cc(CCc2ccc(-c3cc(Cn4cc5nc(-c6cccc(F)c6F)nc-5cn4)on3)cc2)cc(C)n1 [Compound 311, 2-(2,3-Difluoro-phenyl)-5-(3-{4-[2-(2,6-dimethyl-pyridin-4-yl)-ethyl]-phenyl}-isoxazol-5-ylmethyl)-5H-imidazo[4,5-d]pyridazine]
The inhibition at 10 µM of the first is higher: 99.4% for the first, 96.7% for the second.

First: COCCCOc1ccc(-c2cc(Cn3cc4nc(-c5cccc(F)c5F)nc-4cn3)on2)cc1 [Compound 312, 2-(2,3-Difluoro-phenyl)-5-{3-[4-(3-methoxy-propoxy)-phenyl]-isoxazol-5-ylmethyl}-5H-imidazo[4,5-d]pyridazine]
Second: Fc1cccc(-c2nc3cnn(Cc4cc(-c5ccc(OCCCC(F)(F)F)cc5)no4)cc-3n2)c1F [Compound 326, 2-(2,3-Difluoro-phenyl)-5-{3-[4-(4,4,4-trifluoro-butoxy)-phenyl]-isoxazol-5-ylmethyl}-5H-imidazo[4,5-d]pyridazine]
The inhibition at 10 µM of the first is lower: 98.1% for the first, 99.3% for the second.

Compared with `CC(F)(F)c1ccc(-c2cc(Cn3cc4nc(-c5cccc(F)c5F)nc-4cn3)on2)cc1` [Compound 314, 5-{3-[4-(1,1-Difluoro-ethyl)-phenyl]-isoxazol-5-ylmethyl}-2-(2,3-difluoro-phenyl)-5H-imidazo[4,5-d]pyridazine], `CCCC(F)(F)c1ccc(-c2cc(Cn3cc4nc(-c5cccc(F)c5F)nc-4cn3)on2)cc1` [Compound 316, 5-{3-[4-(1,1-Difluoro-butyl)-phenyl]-isoxazol-5-ylmethyl}-2-(2,3-difluoro-phenyl)-5H-imidazo[4,5-d]pyridazine] is lower in inhibition at 10 µM: 99.8% for the first, 99.7% for the second.

Compared with `CCCOc1cnc(-c2cc(Cn3cc4nc(-c5cccc(F)c5F)nc-4cn3)on2)cn1` [Compound 315, 2-(2,3-Difluoro-phenyl)-5-[3-(5-propoxy-pyrazin-2-yl)-isoxazol-5-ylmethyl]-5H-imidazo[4,5-d]pyridazine], `Fc1cccc(-c2nc3cnn(Cc4cc(-c5ccccc5)no4)cc-3n2)c1F` [Compound 337, 2-(2,3-Difluoro-phenyl)-5-(3-phenyl-isoxazol-5-ylmethyl)-5H-imidazo[4,5-d]pyridazine] is lower in inhibition at 10 µM: 99.3% for the first, 68.5% for the second.

First: Cc1ccc(-c2cc(Cn3cc4nc(-c5cccc(F)c5F)nc-4cn3)no2)nn1 [Compound 318, 2-(2,3-Difluoro-phenyl)-5-[5-(6-methyl-pyridazin-3-yl)-isoxazol-3-ylmethyl]-5H-imidazo[4,5-d]pyridazine]
Second: Fc1cccc(-c2nc3cnn(Cc4cc(-c5ccc(-c6nnn[nH]6)cc5)no4)cc-3n2)c1F [Compound 328, 2-(2,3-Difluoro-phenyl)-5-{3-[4-(1H-tetrazol-5-yl)-phenyl]-isoxazol-5-ylmethyl}-5H-imidazo[4,5-d]pyridazine]
The inhibition at 10 µM of the first is lower: 50% for the first, 55.5% for the second.

Going from `Fc1cccc(-c2nc3cnn(Cc4cc(-c5ccc(OCC6CCOCC6)cc5C(F)(F)F)no4)cc-3n2)c1F` [Compound 319, 2-(2,3-Difluoro-phenyl)-5-{3-[4-(tetrahydro-pyran-4-ylmethoxy)-2-trifluoromethyl-phenyl]-isoxazol-5-ylmethyl}-5H-imidazo[4,5-d]pyridazine] to `Fc1cccc(-c2nc3cnn(Cc4cc(-c5ccc(OCC6CCOC6)cc5C(F)(F)F)no4)cc-3n2)c1F` (stereo not drawn) [Compound 329, 2-(2,3-Difluoro-phenyl)-5-{3-[4-(tetrahydro-furan-3-ylmethoxy)-2-trifluoromethyl-phenyl]-isoxazol-5-ylmethyl}-5H-imidazo[4,5-d]pyridazine], the inhibition at 10 µM falls from 100% to 99.5%.

First: COCCOc1ccc(-c2cc(Cn3cc4nc(-c5cccc(F)c5F)nc-4cn3)on2)c(C(F)(F)F)c1 [Compound 320, 2-(2,3-Difluoro-phenyl)-5-{3-[4-(2-methoxy-ethoxy)-2-trifluoromethyl-phenyl]-isoxazol-5-ylmethyl}-5H-imidazo[4,5-d]pyridazine]
Second: CC(C)Cc1ccc(-c2cc(Cn3cc4nc(-c5cccc(F)c5F)nc-4cn3)on2)c(C(F)(F)F)c1 [Compound 323, 2-(2,3-Difluoro-phenyl)-5-[3-(4-isobutyl-2-trifluoromethyl-phenyl)-isoxazol-5-ylmethyl]-5H-imidazo[4,5-d]pyridazine]
The inhibition at 10 µM of the first is lower: 99.8% for the first, 100% for the second.

Compared with `Fc1cccc(-c2nc3cnn(Cc4cc(-c5ccc(-c6cnoc6)cc5C(F)(F)F)no4)cc-3n2)c1F` [Compound 321, 2-(2,3-Difluoro-phenyl)-5-[3-(4-isoxazol-4-yl-2-trifluoromethyl-phenyl)-isoxazol-5-ylmethyl]-5H-imidazo[4,5-d]pyridazine], `Fc1cccc(-c2nc3cnn(Cc4cc(-c5ccc(-c6cn[nH]c6)cc5C(F)(F)F)no4)cc-3n2)c1F` [Compound 322, 2-(2,3-Difluoro-phenyl)-5-{3-[4-(1H-pyrazol-4-yl)-2-trifluoromethyl-phenyl]-isoxazol-5-ylmethyl}-5H-imidazo[4,5-d]pyridazine] is higher in inhibition at 10 µM: 82.5% for the first, 94.9% for the second.

First: O=C(COc1ccc(-c2cc(Cn3cc4nc(-c5cccc(F)c5F)nc-4cn3)on2)c(C(F)(F)F)c1)N1CCCCC1 [Compound 325, 2-(4-{5-[2-(2,3-Difluoro-phenyl)-imidazo[4,5-d]pyridazin-5-ylmethyl]-isoxazol-3-yl}-3-trifluoromethyl-phenoxy)-1-piperidin-1-yl-ethanone]
Second: Fc1cccc(-c2nc3cnn(Cc4cc(-c5ccc(CCC(F)(F)F)cc5)no4)cc-3n2)c1F [Compound 331, 2-(2,3-Difluoro-phenyl)-5-{3-[4-(3,3,3-trifluoro-propyl)-phenyl]-isoxazol-5-ylmethyl}-5H-imidazo[4,5-d]pyridazine]
The inhibition at 10 µM of the first is lower: 8.2% for the first, 99.9% for the second.

Compared with `C#CCOc1ccc(-c2cc(Cn3cc4nc(-c5cccc(F)c5F)nc-4cn3)on2)cc1` [Compound 327], `C[Si](C)(C)C#Cc1ccc(-c2cc(Cn3cc4nc(-c5cccc(F)c5F)nc-4cn3)on2)cc1` [Compound 332, 2-(2,3-Difluoro-phenyl)-5-[3-(4-trimethylsilanylethynyl-phenyl)-isoxazol-5-ylmethyl]-5H-imidazo[4,5-d]pyridazine] is lower in inhibition at 10 µM: 99.7% for the first, 99% for the second.

Going from `Fc1cccc(-c2nc3cnn(Cc4cc(-c5ccc(CCCC(F)(F)F)cc5)no4)cc-3n2)c1F` [Compound 330, 2-(2,3-Difluoro-phenyl)-5-{3-[4-(4,4,4-trifluoro-butyl)-phenyl]-isoxazol-5-ylmethyl}-5H-imidazo[4,5-d]pyridazine] to `CC(C)(C)C#Cc1ccc(-c2cc(Cn3cc4nc(-c5cccc(F)c5F)nc-4cn3)on2)cc1` [Compound 333, 2-(2,3-Difluoro-phenyl)-5-{3-[4-(3,3-dimethyl-but-1-ynyl)-phenyl]-isoxazol-5-ylmethyl}-5H-imidazo[4,5-d]pyridazine], the inhibition at 10 µM falls from 99.7% to 86.4%.

Work on `Fc1cccc(-c2nc3cnn(Cc4cc(-c5ccc(C#CC6CCCC6)cc5)no4)cc-3n2)c1F` [Compound 335, 5-[3-(4-Cyclopentylethynyl-phenyl)-isoxazol-5-ylmethyl]-2-(2,3-difluoro-phenyl)-5H-imidazo[4,5-d]pyridazine] yielded an inhibition at 10 µM of 96.7%.
